Source: BindingDB's records for doi:10.1016/S0960-894X(96)00248-X (1996)

Experiment: Inhibitory activity against gastrin receptor

Compound: Cc1cccc(NC(=O)NC2N=C(c3ccccc3)c3ccccc3N(CC(=O)NCC(=O)NCCSCc3csc(N=C(N)N)n3)C2=O)c1 (stereo not given) [N-{[2-(2-Guanidino-thiazol-4-ylmethylsulfanyl)-ethylcarbamoyl]-methyl}-2-[2-oxo-5-phenyl-3-(3-m-tolyl-ureido)-2,3-dihydro-benzo[e][1,4]diazepin-1-yl]-acetamide]
- IC50: 370 nM

Compound: CN1C(=O)[C@H](NC(=O)Nc2cccc(CC(=O)NCCC(=O)NCCCOc3cccc(CN4CCCCC4)c3)c2)N=C(c2ccccc2)c2ccccc21 [3-(2-{3-[3-((R)-1-Methyl-2-oxo-5-phenyl-2,3-dihydro-1H-benzo[e][1,4]diazepin-3-yl)-ureido]-phenyl}-acetylamino)-N-[3-(3-piperidin-1-ylmethyl-phenoxy)-propyl]-propionamide]
- IC50: 136 nM

Compound: Cc1cccc(NC(=O)NC2N=C(c3cccc(OCC(=O)NCCCC(=O)NCCSCc4csc(N=C(N)N)n4)c3)c3ccccc3N(C)C2=O)c1 (stereo not given) [N-[2-(2-Guanidino-thiazol-4-ylmethylsulfanyl)-ethyl]-4-(2-{3-[1-methyl-2-oxo-3-(3-m-tolyl-ureido)-2,3-dihydro-1H-benzo[e][1,4]diazepin-5-yl]-phenoxy}-acetylamino)-butyramide]
- IC50: 14 nM

Compound: Cc1cccc(NC(=O)NC2N=C(c3cccc(OCC(=O)NCC(=O)NCCSCc4csc(N=C(N)N)n4)c3)c3ccccc3N(C)C2=O)c1 (stereo not given) [N-{[2-(2-Guanidino-thiazol-4-ylmethylsulfanyl)-ethylcarbamoyl]-methyl}-2-{3-[1-methyl-2-oxo-3-(3-m-tolyl-ureido)-2,3-dihydro-1H-benzo[e][1,4]diazepin-5-yl]-phenoxy}-acetamide]
- IC50: 12 nM

Compound: Cc1cccc(NC(=O)NC2N=C(c3cccc(OCC(=O)NCCC(=O)NCCSCc4csc(N=C(N)N)n4)c3)c3ccccc3N(C)C2=O)c1 (stereo not given) [N-[2-(2-Guanidino-thiazol-4-ylmethylsulfanyl)-ethyl]-3-(2-{3-[1-methyl-2-oxo-3-(3-m-tolyl-ureido)-2,3-dihydro-1H-benzo[e][1,4]diazepin-5-yl]-phenoxy}-acetylamino)-propionamide]
- IC50: 25 nM

Compound: Cc1cccc(NC(=O)NC2N=C(c3ccccc3)c3ccccc3N(CC(=O)NCCCC(=O)NCCCOc3cccc(CN4CCCCC4)c3)C2=O)c1 (stereo not given) [4-{2-[2-Oxo-5-phenyl-3-(3-m-tolyl-ureido)-2,3-dihydro-benzo[e][1,4]diazepin-1-yl]-acetylamino}-N-[3-(3-piperidin-1-ylmethyl-phenoxy)-propyl]-butyramide]
- IC50: 210 nM

Compound: Cc1cccc(NC(=O)NC2N=C(c3ccccc3)c3ccccc3N(CC(=O)NCC(=O)NCCCOc3cccc(CN4CCCCC4)c3)C2=O)c1 (stereo not given) [2-[2-Oxo-5-phenyl-3-(3-m-tolyl-ureido)-2,3-dihydro-benzo[e][1,4]diazepin-1-yl]-N-{[3-(3-piperidin-1-ylmethyl-phenoxy)-propylcarbamoyl]-methyl}-acetamide]
- IC50: 790 nM

Compound: CN1C(=O)[C@H](NC(=O)Nc2cccc(CC(=O)NCCCC(=O)NCCSCc3csc(N=C(N)N)n3)c2)N=C(c2ccccc2)c2ccccc21 [N-[2-(2-Guanidino-thiazol-4-ylmethylsulfanyl)-ethyl]-4-(2-{3-[3-((R)-1-methyl-2-oxo-5-phenyl-2,3-dihydro-1H-benzo[e][1,4]diazepin-3-yl)-ureido]-phenyl}-acetylamino)-butyramide]
- IC50: 240 nM

Compound: CN1C(=O)[C@H](NC(=O)Nc2cccc(CC(=O)NCCCC(=O)NCCCOc3cccc(CN4CCCCC4)c3)c2)N=C(c2ccccc2)c2ccccc21 [4-(2-{3-[3-((R)-1-Methyl-2-oxo-5-phenyl-2,3-dihydro-1H-benzo[e][1,4]diazepin-3-yl)-ureido]-phenyl}-acetylamino)-N-[3-(3-piperidin-1-ylmethyl-phenoxy)-propyl]-butyramide]
- IC50: 115 nM

Compound: CN1C(=O)[C@H](NC(=O)Nc2cccc(CC(=O)NCCCOc3cccc(CN4CCCCC4)c3)c2)N=C(c2ccccc2)c2ccccc21 [2-{3-[3-((R)-1-Methyl-2-oxo-5-phenyl-2,3-dihydro-1H-benzo[e][1,4]diazepin-3-yl)-ureido]-phenyl}-N-[3-(3-piperidin-1-ylmethyl-phenoxy)-propyl]-acetamide]
- IC50: 230 nM

Compound: Cc1cccc(NC(=O)NC2N=C(c3cccc(OCC(=O)NCC(=O)NCCCOc4cccc(CN5CCCCC5)c4)c3)c3ccccc3N(C)C2=O)c1 (stereo not given) [2-{3-[1-Methyl-2-oxo-3-(3-m-tolyl-ureido)-2,3-dihydro-1H-benzo[e][1,4]diazepin-5-yl]-phenoxy}-N-{[3-(3-piperidin-1-ylmethyl-phenoxy)-propylcarbamoyl]-methyl}-acetamide]
- IC50: 63 nM

Compound: Cc1cccc(NC(=O)NC2N=C(c3cccc(OCC(=O)NCCCOc4cccc(CN5CCCCC5)c4)c3)c3ccccc3N(C)C2=O)c1 (stereo not given) [2-{3-[1-Methyl-2-oxo-3-(3-m-tolyl-ureido)-2,3-dihydro-1H-benzo[e][1,4]diazepin-5-yl]-phenoxy}-N-[3-(3-piperidin-1-ylmethyl-phenoxy)-propyl]-acetamide]
- IC50: 570 nM

Compound: CN1C(=O)[C@H](NC(=O)Nc2cccc(C(=O)NCCCOc3cccc(CN4CCCCC4)c3)c2)N=C(c2ccccc2)c2ccccc21 [3-[3-((R)-1-Methyl-2-oxo-5-phenyl-2,3-dihydro-1H-benzo[e][1,4]diazepin-3-yl)-ureido]-N-[3-(3-piperidin-1-ylmethyl-phenoxy)-propyl]-benzamide]
- IC50: 550 nM

Compound: Cc1cccc(NC(=O)NC2N=C(c3cccc(OCC(=O)NCCC(=O)NCCCOc4cccc(CN5CCCCC5)c4)c3)c3ccccc3N(C)C2=O)c1 (stereo not given) [3-(2-{3-[1-Methyl-2-oxo-3-(3-m-tolyl-ureido)-2,3-dihydro-1H-benzo[e][1,4]diazepin-5-yl]-phenoxy}-acetylamino)-N-[3-(3-piperidin-1-ylmethyl-phenoxy)-propyl]-propionamide]
- IC50: 200 nM

Compound: CN1C(=O)[C@H](NC(=O)Nc2cccc(CC(=O)NCCCCCC(=O)NCCCOc3cccc(CN4CCCCC4)c3)c2)N=C(c2ccccc2)c2ccccc21 [6-(2-{3-[3-((R)-1-Methyl-2-oxo-5-phenyl-2,3-dihydro-1H-benzo[e][1,4]diazepin-3-yl)-ureido]-phenyl}-acetylamino)-hexanoic acid [3-(3-piperidin-1-ylmethyl-phenoxy)-propyl]-amide]
- IC50: 110 nM

Compound: CN1C(=O)[C@H](NC(=O)Nc2cccc(CC(=O)NCCSCc3csc(N=C(N)N)n3)c2)N=C(c2ccccc2)c2ccccc21 [N-[2-(2-Guanidino-thiazol-4-ylmethylsulfanyl)-ethyl]-2-{3-[3-((R)-1-methyl-2-oxo-5-phenyl-2,3-dihydro-1H-benzo[e][1,4]diazepin-3-yl)-ureido]-phenyl}-acetamide]
- IC50: 168 nM

Compound: Cc1cccc(NC(=O)NC2N=C(c3ccccc3)c3ccccc3N(CC(=O)NCCSCc3csc(N=C(N)N)n3)C2=O)c1 (stereo not given) [N-[2-(2-Guanidino-thiazol-4-ylmethylsulfanyl)-ethyl]-2-[2-oxo-5-phenyl-3-(3-m-tolyl-ureido)-2,3-dihydro-benzo[e][1,4]diazepin-1-yl]-acetamide]
- IC50: 3 nM

Compound: Cc1cccc(NC(=O)NC2N=C(c3ccccc3)c3ccccc3N(CC(=O)NCCC(=O)NCCCOc3cccc(CN4CCCCC4)c3)C2=O)c1 (stereo not given) [3-{2-[2-Oxo-5-phenyl-3-(3-m-tolyl-ureido)-2,3-dihydro-benzo[e][1,4]diazepin-1-yl]-acetylamino}-N-[3-(3-piperidin-1-ylmethyl-phenoxy)-propyl]-propionamide]
- IC50: 185 nM

Compound: CN1C(=O)[C@H](NC(=O)Nc2cccc(CC(=O)NCCCCCC(=O)NCCSCc3csc(N=C(N)N)n3)c2)N=C(c2ccccc2)c2ccccc21 [6-(2-{3-[3-((R)-1-Methyl-2-oxo-5-phenyl-2,3-dihydro-1H-benzo[e][1,4]diazepin-3-yl)-ureido]-phenyl}-acetylamino)-hexanoic acid [2-(2-guanidino-thiazol-4-ylmethylsulfanyl)-ethyl]-amide]
- IC50: 45 nM

Compound: CN1C(=O)[C@H](NC(=O)Nc2cccc(CC(=O)NCCC(=O)NCCSCc3csc(N=C(N)N)n3)c2)N=C(c2ccccc2)c2ccccc21 [N-[2-(2-Guanidino-thiazol-4-ylmethylsulfanyl)-ethyl]-3-(2-{3-[3-((R)-1-methyl-2-oxo-5-phenyl-2,3-dihydro-1H-benzo[e][1,4]diazepin-3-yl)-ureido]-phenyl}-acetylamino)-propionamide]
- IC50: 80 nM

Compound: Cc1cccc(NC(=O)NC2N=C(c3cccc(OCC(=O)NCCCC(=O)NCCCOc4cccc(CN5CCCCC5)c4)c3)c3ccccc3N(C)C2=O)c1 (stereo not given) [4-(2-{3-[1-Methyl-2-oxo-3-(3-m-tolyl-ureido)-2,3-dihydro-1H-benzo[e][1,4]diazepin-5-yl]-phenoxy}-acetylamino)-N-[3-(3-piperidin-1-ylmethyl-phenoxy)-propyl]-butyramide]
- IC50: 60 nM

Compound: Cc1cccc(NC(=O)NC2N=C(c3cccc(OCC(=O)NCCCCCC(=O)NCCCOc4cccc(CN5CCCCC5)c4)c3)c3ccccc3N(C)C2=O)c1 (stereo not given) [6-(2-{3-[1-Methyl-2-oxo-3-(3-m-tolyl-ureido)-2,3-dihydro-1H-benzo[e][1,4]diazepin-5-yl]-phenoxy}-acetylamino)-hexanoic acid [3-(3-piperidin-1-ylmethyl-phenoxy)-propyl]-amide]
- IC50: 32 nM

Compound: Cc1cccc(NC(=O)NC2N=C(c3ccccc3)c3ccccc3N(CC(=O)NCCCCCC(=O)NCCCOc3cccc(CN4CCCCC4)c3)C2=O)c1 (stereo not given) [6-{2-[2-Oxo-5-phenyl-3-(3-m-tolyl-ureido)-2,3-dihydro-benzo[e][1,4]diazepin-1-yl]-acetylamino}-hexanoic acid [3-(3-piperidin-1-ylmethyl-phenoxy)-propyl]-amide]
- IC50: 16 nM

Compound: Cc1cccc(NC(=O)NC2N=C(c3ccccc3)c3ccccc3N(CC(=O)NCCC(=O)NCCSCc3csc(N=C(N)N)n3)C2=O)c1 (stereo not given) [N-[2-(2-Guanidino-thiazol-4-ylmethylsulfanyl)-ethyl]-3-{2-[2-oxo-5-phenyl-3-(3-m-tolyl-ureido)-2,3-dihydro-benzo[e][1,4]diazepin-1-yl]-acetylamino}-propionamide]
- IC50: 75 nM

Compound: Cc1cccc(NC(=O)NC2N=C(c3ccccc3)c3ccccc3N(CC(=O)NCCCOc3cccc(CN4CCCCC4)c3)C2=O)c1 (stereo not given) [2-[2-Oxo-5-phenyl-3-(3-m-tolyl-ureido)-2,3-dihydro-benzo[e][1,4]diazepin-1-yl]-N-[3-(3-piperidin-1-ylmethyl-phenoxy)-propyl]-acetamide]
- IC50: 155 nM
